Measurements reported in publication PMC11304049 (RSC Advances, 2024).
Several values for one entry are separate records, joined by “and”; a condition that tells them apart may be missing. Equal entries are not always repeated. Where two headings read alike, the source gives them in different places.

Experiments:
PfW2 [1] = test: microbe, parasite or virus in culture; type: cell-based, Plasmodium falciparum; conditions: read-out: PfW2 IC50
Pf3D7 [2] = test: microbe, parasite or virus in culture; type: cell-based; conditions: Plasmodium falciparum, 3D7, read-out: Pf3D7 IC50
Falcipain-3 = target: T1, Falcipain-3 (Plasmodium falciparum, UniProt Q8IIL0); test: biochemical
T1 sequence (Q8IIL0 243-492): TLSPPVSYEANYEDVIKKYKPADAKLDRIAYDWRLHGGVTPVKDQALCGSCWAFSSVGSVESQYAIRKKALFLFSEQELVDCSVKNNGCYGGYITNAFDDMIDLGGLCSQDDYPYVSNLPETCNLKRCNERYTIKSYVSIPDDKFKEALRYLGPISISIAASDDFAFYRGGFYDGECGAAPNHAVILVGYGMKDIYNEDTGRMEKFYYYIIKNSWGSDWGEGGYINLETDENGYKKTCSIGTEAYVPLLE

[3] = Cytotoxicity by MTT assay, Vero cells; type: cell-based; conditions: African green monkey, Vero cells
Vero cell = test: Cytotoxicity by MTT assay, Vero cells; type: cell-based; conditions: for Selectivity index (SI) with Pf3D7 strain, Vero cell: cytotoxicity IC50 / Pf3D7 IC50; for Selectivity index (SI) with PfW2 strain, Vero cell: cytotoxicity IC50 / PfW2 IC50
Falcipain-2 = target: T2, Falcipain-2 (Plasmodium falciparum, UniProt Q8I6U4); test: biochemical; conditions: Falcipain-2 (IC50 μM), mean of triplicate
T2 sequence (Q8I6U4 244-484): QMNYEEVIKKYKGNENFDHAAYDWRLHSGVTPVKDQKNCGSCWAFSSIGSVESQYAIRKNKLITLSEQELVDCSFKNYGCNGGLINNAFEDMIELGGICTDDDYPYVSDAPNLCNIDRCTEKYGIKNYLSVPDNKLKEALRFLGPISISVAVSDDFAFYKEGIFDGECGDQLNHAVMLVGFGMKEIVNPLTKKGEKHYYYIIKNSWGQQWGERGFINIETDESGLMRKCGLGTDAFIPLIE

[4] = Cytotoxicity by MTT assay, lung cancer A5489 cell line; type: cell-based, human; conditions: human, lung cancer A5489 cell line
[5] = tested on: lung cancer A5489 cell line; test: as above; type: cell-based, human; conditions: for Selectivity index (SI) with Pf3D7 strain, A5489: cytotoxicity IC50 / Pf3D7 IC50; for Selectivity index (SI) with PfW2 strain, A5489: cytotoxicity IC50 / PfW2 IC50
[6] = tested on: early ring stage 3D7 parasite of P. falciparum; test: Impact on parasite growth and morphology; type: cell-based, Plasmodium falciparum; conditions: ring-stage parasites, 3 × IC50 concentration, smears after 24 and 48 hours
Pf3D7 [7] = conditions: read-out: Pf3D7 IC50; reference drugs, reported earlier; cited from earlier work
PfW2 [8] = conditions: read-out: PfW2 IC50; reference drugs, reported earlier; cited from earlier work

O=C1CC2(CCN(c3cc(N4CCN(S(=O)(=O)c5ccccc5[N+](=O)[O-])CC4)ncn3)CC2)Oc2ccccc21 [SZ2, 1′-(6-(4-((2-Nitrophenyl)sulfonyl)piperazin-1-yl)pyrimidin-4-yl)spiro [chromane-2,4′-piperidin]-4-one]
IC50 (PfW2 [1]; Plasmodium falciparum): > 14 µM | IC50 (PfW2 [1]): > 15 µM | IC50 (Pf3D7 [2]): 18.1 ± 0.43 µM

O=C1CC2(CCN(c3cc(N4CCN(S(=O)(=O)c5ccc6ccccc6c5)CC4)ncn3)CC2)Oc2ccccc21 [SZ3, 1′-(6-(4-(Naphthalen-2-ylsulfonyl)piperazin-1-yl)pyrimidin-4-yl)spiro[chromane-2,4′-piperidin]-4-one]
IC50 (PfW2 [1]; Plasmodium falciparum): > 15 µM | IC50 (Pf3D7 [2]): 25.2 ± 0.35 µM

O=C1CC2(CCN(c3cc(N4CCN(S(=O)(=O)c5cccc(C(F)(F)F)c5)CC4)ncn3)CC2)Oc2ccccc21 [SZ14, 1′-(6-(4-((3-(Trifluoromethyl)phenyl)sulfonyl)piperazin-1-yl)pyrimidin-4-yl)spiro [chromane-2,4′-piperidin]-4-one]
IC50 (Falcipain-3): 5.4 ± 0.7 µM | IC50 (PfW2 [1]; Plasmodium falciparum): 2.84 µM | IC50 (PfW2 [1]): 3.12 ± 0.14 µM | IC50 at 72 h [3]: > 1000 µM | Selectivity index (SI) with Pf3D7 strain, Vero cell (Vero cell): 352.11 | Selectivity index (SI) with PfW2 strain, Vero cell (Vero cell): 320.51 | IC50 (Falcipain-2): 4.1 ± 1.1 µM | IC50 at 24 h [4]: 66.2 ± 2.14 µM | Selectivity index (SI) with Pf3D7 strain, A5489 [5]: 23.31 | Selectivity index (SI) with PfW2 strain, A5489 [5]: 21.22 | IC50 (Pf3D7 [2]): 2.84 ± 0.21 µM | Effect on erythrocytic growth of the parasite [6]: stopped at the early trophozoite stage

O=C1CC2(CCN(c3cc(N4CCN(S(=O)(=O)c5ccc([N+](=O)[O-])cc5)CC4)ncn3)CC2)Oc2ccccc21 [SZ1, 1′-(6-(4-((4-Nitrophenyl)sulfonyl)piperazin-1-yl)pyrimidin-4-yl)spiro[chromane-2,4′-piperidin]-4-one]
IC50 (PfW2 [1]; Plasmodium falciparum): > 14 µM | IC50 (PfW2 [1]): > 15 µM | IC50 (Pf3D7 [2]): 14.8 ± 0.24 µM

O=C1CC2(CCN(c3cc(N4CCN(S(=O)(=O)c5ccccc5F)CC4)ncn3)CC2)Oc2ccccc21 [SZ8, 1′-(6-(4-((2-Fluorophenyl)sulfonyl)piperazin-1-yl)pyrimidin-4-yl)spiro[chromane-2,4′-piperidin]-4-one]
IC50 (PfW2 [1]; Plasmodium falciparum): 8.12 ± 0.37 µM | IC50 (Pf3D7 [2]): 5.61 ± 0.42 µM

CCc1nc(N)nc(N)c1-c1ccc(Cl)cc1 [PYR, pyrimethamine]
IC50 (Pf3D7 [7]): 0.015 ± 0.0002 µM | IC50 (PfW2 [8]): 129 ± 11.3 µM

Cc1noc(C)c1S(=O)(=O)N1CCN(c2cc(N3CCC4(CC3)CC(=O)c3ccccc3O4)ncn2)CC1 [SZ12, 1′-(6-(4-((3,5-Dimethylisoxazol-4-yl)sulfonyl)piperazin-1-yl)pyrimidin-4-yl) spiro[chromane-2,4′-piperidin]-4-one]
IC50 (PfW2 [1]; Plasmodium falciparum): > 15 µM | IC50 (Pf3D7 [2]): 8.46 ± 0.28 µM

CCN(CC)CCCC(C)Nc1ccnc2cc(Cl)ccc12 (stereo not drawn) [CQ, Chloroquine]
IC50 (Pf3D7 [7]): 0.018 ± 0.002 µM | IC50 (PfW2 [8]): 0.051 ± 0.001 µM

O=C1CC2(CCN(c3cc(N4CCN(S(=O)(=O)c5cccnc5)CC4)ncn3)CC2)Oc2ccccc21 [SZ7, 1′-(6-(4-(Pyridin-3-ylsulfonyl)piperazin-1-yl)pyrimidin-4-yl)spiro[chromane-2,4′-piperidin]-4-one]
IC50 (PfW2 [1]; Plasmodium falciparum): 5.64 ± 0.18 µM | IC50 (Pf3D7 [2]): 7.97 ± 0.33 µM

O=C1CC2(CCN(c3cc(N4CCN(S(=O)(=O)c5ccc(F)c(F)c5)CC4)ncn3)CC2)Oc2ccccc21 [SZ11, 1′-(6-(4-((3,4-Difluorophenyl)sulfonyl)piperazin-1-yl)pyrimidin-4-yl)spiro [chromane-2,4′-piperidin]-4-one]
IC50 (Falcipain-3): 8 ± 1.4 µM | IC50 (PfW2 [1]; Plasmodium falciparum): 5.58 ± 0.19 µM | IC50 at 72 h [3]: > 1000 µM | Selectivity index (SI) with Pf3D7 strain, Vero cell (Vero cell): 255.10 | Selectivity index (SI) with PfW2 strain, Vero cell (Vero cell): 179.21 | IC50 (Falcipain-2): 6.5 ± 1.6 µM | IC50 at 24 h [4]: 94.2 ± 2.97 µM | Selectivity index (SI) with Pf3D7 strain, A5489 [5]: 24.01 | Selectivity index (SI) with PfW2 strain, A5489 [5]: 16.87 | IC50 (Pf3D7 [2]): 3.92 ± 0.25 µM | Effect on erythrocytic growth of the parasite [6]: stopped at the early trophozoite stage

O=C1CC2(CCN(c3cc(N4CCN(S(=O)(=O)N5CCOCC5)CC4)ncn3)CC2)Oc2ccccc21 [SZ13, 1′-(6-(4-(Morpholinosulfonyl)piperazin-1-yl)pyrimidin-4-yl) spiro[chromane-2,4′-piperidin]-4-one]
IC50 (PfW2 [1]; Plasmodium falciparum): > 15 µM | IC50 (Pf3D7 [2]): 22.2 ± 0.36 µM

O=C1CC2(CCN(c3cc(N4CCN(S(=O)(=O)c5ccc(F)cc5)CC4)ncn3)CC2)Oc2ccccc21 [SZ9, 1′-(6-(4-((4-Fluorophenyl)sulfonyl)piperazin-1-yl)pyrimidin-4-yl)spiro[chromane-2,4′-piperidin]-4-one]
IC50 (Falcipain-3): 6.3 ± 1.2 µM | IC50 (PfW2 [1]; Plasmodium falciparum): 3.89 ± 0.23 µM | IC50 at 72 h [3]: > 1000 µM | Selectivity index (SI) with Pf3D7 strain, Vero cell (Vero cell): 310.55 | Selectivity index (SI) with PfW2 strain, Vero cell (Vero cell): 257.06 | IC50 (Falcipain-2): 5.4 µM and 4.9 µM | IC50 at 24 h [4]: 78.5 ± 2.76 µM | Selectivity index (SI) with Pf3D7 strain, A5489 [5]: 24.36 | Selectivity index (SI) with PfW2 strain, A5489 [5]: 20.17 | IC50 (Pf3D7 [2]): 3.22 ± 0.07 µM | Effect on erythrocytic growth of the parasite [6]: stopped at the early trophozoite stage

N#Cc1ccc(S(=O)(=O)N2CCN(c3cc(N4CCC5(CC4)CC(=O)c4ccccc4O5)ncn3)CC2)cc1 [SZ4, 4-((4-(6-(4-Oxospiro[chromane-2,4′-piperidin]-1′-yl)pyrimidin-4-yl)piperazin-1-yl)sulfonyl)benzonitrile]
IC50 (PfW2 [1]; Plasmodium falciparum): 14.4 ± 0.16 µM | IC50 (Pf3D7 [2]): 6.33 ± 0.29 µM

O=C1CC2(CCN(c3cc(N4CCN(S(=O)(=O)c5cccs5)CC4)ncn3)CC2)Oc2ccccc21 [SZ5, 1′-(6-(4-(Thiophen-2-ylsulfonyl)piperazin-1-yl)pyrimidin-4-yl) spiro[chromane-2,4′-piperidin]-4-one]
IC50 (PfW2 [1]; Plasmodium falciparum): 13.3 ± 0.19 µM | IC50 (Pf3D7 [2]): 7.45 ± 0.37 µM

O=C1CC2(CCN(c3cc(N4CCN(S(=O)(=O)c5cc(F)cc(F)c5)CC4)ncn3)CC2)Oc2ccccc21 [SZ10, 1′-(6-(4-((3,5-Difluorophenyl)sulfonyl)piperazin-1-yl)pyrimidin-4-yl) spiro [chromane-2,4′-piperidin]-4-one]
IC50 (Falcipain-3): 8.8 ± 1.5 µM | IC50 (PfW2 [1]; Plasmodium falciparum): 6.67 ± 0.16 µM | IC50 at 72 h [3]: > 1000 µM | Selectivity index (SI) with Pf3D7 strain, Vero cell (Vero cell): 219.79 | Selectivity index (SI) with PfW2 strain, Vero cell (Vero cell): 149.92 | IC50 (Falcipain-2): 7.2 ± 1.8 µM | IC50 at 24 h [4]: 122 ± 3.39 µM | Selectivity index (SI) with Pf3D7 strain, A5489 [5]: 26.91 | Selectivity index (SI) with PfW2 strain, A5489 [5]: 18.35 | IC50 (Pf3D7 [2]): 4.55 ± 0.34 µM | Effect on erythrocytic growth of the parasite [6]: stopped at the early trophozoite stage
